Target: T1, TRPV3 (Mus musculus, UniProt Q8K424)
T1 sequence (Q8K424 1-791): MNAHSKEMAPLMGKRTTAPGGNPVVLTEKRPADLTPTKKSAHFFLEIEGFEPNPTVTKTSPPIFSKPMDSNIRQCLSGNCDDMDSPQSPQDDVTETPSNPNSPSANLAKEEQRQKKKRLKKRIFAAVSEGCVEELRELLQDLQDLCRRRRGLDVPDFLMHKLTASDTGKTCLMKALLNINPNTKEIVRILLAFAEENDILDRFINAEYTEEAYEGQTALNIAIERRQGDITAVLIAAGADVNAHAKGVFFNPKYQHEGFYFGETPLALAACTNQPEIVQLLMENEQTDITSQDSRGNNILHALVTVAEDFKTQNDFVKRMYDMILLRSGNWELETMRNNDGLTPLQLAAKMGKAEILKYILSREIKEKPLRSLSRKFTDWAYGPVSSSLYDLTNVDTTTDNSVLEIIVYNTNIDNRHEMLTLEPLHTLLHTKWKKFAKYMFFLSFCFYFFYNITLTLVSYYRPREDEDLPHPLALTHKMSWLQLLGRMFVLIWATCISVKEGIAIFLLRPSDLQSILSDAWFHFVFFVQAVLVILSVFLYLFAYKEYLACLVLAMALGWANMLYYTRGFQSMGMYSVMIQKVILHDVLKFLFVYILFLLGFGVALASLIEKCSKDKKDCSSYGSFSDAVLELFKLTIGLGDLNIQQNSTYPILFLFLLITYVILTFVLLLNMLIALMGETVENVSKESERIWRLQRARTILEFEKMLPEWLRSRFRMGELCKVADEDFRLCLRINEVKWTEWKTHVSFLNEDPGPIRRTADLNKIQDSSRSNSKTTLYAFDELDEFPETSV
Experiment: patch-clamp, reversible potentiation of 2-APB response in inside-out patches
Type: cell-based

## CC(C)=C[C@H]1C[C@H](C)[C@]2(CC[C@]3(C)C[C@H]4[C@H](C(=O)C[C@@]4(C)O)/C(C=O)=C\C[C@H]32)O1 [ophiobolin A]
  patch-clamp, reversible potentiation of 2-APB response in inside-out patches: some CaM inhibitors such as ophiobolin A and W-7 may directly interfere with the gating of TRPV3

Reference: article PMC3206302 (The Journal of General Physiology, 2011)
